The test system of experiment [1] is Y1 (DNA, duplex, free-base (2H) porphyrin-dU (porphyrin via rigid acetylene linker) at 5 of strand 1 and at 4 of strand 2) CGCATTATATGC/GCATATAATGCG
The experiment in a line: CD titration (porphyrin exciton coupling), Scatchard fit. Conditions: Na+ 100 mM NaCl + 100 mM Na2HPO4 (assumed from Fig. 2 legend); 4 μM DNA; EtBr 40-800 μM; apparent; global intercalation; buffer not given; per base.

For experiment [2], the system named is Y2 (DNA, duplex, free-base (2H) porphyrin-dU (porphyrin via rigid acetylene linker) at 10 of strand 1 and at 4 of strand 2) CGCATTATATGC/GCATATAATGCG
The description is as above. Conditions: Na+ 100 mM NaCl + 100 mM Na2HPO4 (assumed from Fig. 2 legend); 4 μM DNA; EtBr 40-800 μM; apparent; local site between adjacent porphyrins; buffer not given; per base.

With `CC[n+]1c(-c2ccccc2)c2cc(N)ccc2c2ccc(N)cc21`, the results for the “Ka (association binding constant)” value in experiment [1] and in experiment [2] were 1.43 ± 0.2 × 10^5 M^-1 and 3.54 ± 0.4 × 10^5 M^-1, respectively.

The values are drawn from publication PMC7054460 (2020).
